Columns and labels:
[1] = Solubility of the complexes in scCO2 by UV spectroscopy (Lambert-Beer law, reference data for THF solutions); format: physicochemical
Procedure: Die Löslichkeit der Komplexe IXa,b in scCO2 wurde mittels UV-Spektroskopie bestimmt und mit der Löslichkeit der unsubstituierten Stammverbindung [(dppe)Rh(hfacac)] IXe verglichen. IXe ist selbst bei hoher Dichte ρ und damit hoher Lösungskraft des scCO2 (Angew. Chem. 1978, 90, 748) nicht löslich (T = 50 °C, […]). Mit IXa und IXb werden hingegen bereits bei niedrigen Dichten (T= 50 °C, ρ = 90 bar, ρ = 0.55 g cm^-3) gelb-orange Lösungen erhalten. Aus den Absorptionsmaxima der UV-Spektren (siehe Abb. 1) läßt sich über das Lambert-Beer'sche-Gesetz mittels Vergleichsdaten für THF-Lösungen eine Sättigungskonzentration von 6.3 x 10^-5 M für IXa und 7.5 x 10^-5 M für IXb ermitteln. Zum Vergleich ist in Abb. 1 auch das UV-Spektrum des Komplexes IXf mit der Alkylphosphorverbindung 1,2-Bis(dicyclohexylphosphino)ethan (dcpe) aufgeführt. Die Löslichkeit von IXf in scCO2 beträgt unter identischen Bedingungen 1.1 x 10^-5 M, ist also um 5x bzw. 7x geringer als die von IXa und IXb. [formula]

[2] = scCO2, T = 50 °C, p = 345 bar; cited from earlier work

Row | Compound | Löslichkeit in scCO2 [1] | maximale Löslichkeit [2]
1 | O=C([CH-]C(=O)C(F)(F)F)C(F)(F)F.[Rh+].c1ccc(P(CCP(c2ccccc2)c2ccccc2)c2ccccc2)cc1 [IXe, [(dppe)Rh(hfacac)], reference compound] | nicht löslich | 
2 | [(Duphos)Rh(η^4-C8H12)]^+ |  | 30 µM

Source: patent EP0959987B1, “USE OF PERFLUOROALKYL SUBSTITUTED PHOSPHORUS COMPOUNDS AS LIGANDS FOR HOMOGENEOUS CATALYSIS IN SUPERCRITICAL CARBON DIOXIDE” (Studiengesellschaft Kohle mbH, priority 1997, dated 1998)
